In patent publication US6342079B1, “Primary intermediate for use in oxidative hair dyeing” (Bristol-Myers Squibb Company, priority 2000, dated 2002):

Key:
[1] = Solubility in water; type: physicochemical
[2] = Storage stability of the free base; type: physicochemical; settings: for long term storage stability: extended storage
[3] = Sensitization potential
[4] = as described in U.S. Pat. Nos. 5,599,353 and 5,538,516; cited from earlier work

solubility in water [1]	stability in free base form compared with 2-(2-hydroxyethyl)-p-phenylenediamine [2]	long term storage stability [2]	Structure (SMILES)	sensitization potential compared with p-phenylenediamine [3]	sensitization potential [4]
excellent	significantly more stable	excellent	CC(O)c1cc(N)ccc1N (stereo not drawn) [1-(2,5-Diaminophenyl)ethanol, 1-(2,5-diaminophenyl)ethanol]	much less susceptible to cause sensitization	
		not sufficiently stable	Nc1ccc(N)c(CCO)c1 [2-(2-hydroxyethyl)-p-phenylenediamine, reference compound]		
			Nc1ccc(N)cc1 [p-phenylenediamine]		strong
